Laboratory results from article PMC3986099, “Development of a Radioiodinated Triazolopyrimidine Probe for Nuclear Medical Imaging of Fatty Acid Binding Protein 4” (PLoS ONE, 2014).

How the values were obtained:
[1] = target: T1, his-tagged FABP3 (Homo sapiens, UniProt P05413); assay: Selectivity binding assay with FABP immobilized on Ni-NTA magnetic agarose beads; settings: immobilized FABP3, 2 hr, room temperature
T1 construct: purchased Cayman Chemical Company
Procedure: (§1) For the selectivity binding assay, his-tagged FABP3 (0.75 mg/ml), FABP4 (0.75 mg/ml) and FABP5 (0.70 mg/ml) in 50 mM phosphate buffer containing 100 mM NaCl (20% glycerol, v/v, pH = 7.2) were used. Immobilization was performed following the manufacturer's procedures. Each solution of his-tagged FABP3 ([…], 1.5 µg), FABP4 (0.002 ml, 1.5 µg) or FABP5 (0.002 ml, 1.4 µg) was incubated with 0.02 ml Ni-NTA Magnetic Agarose Beads (Qiagen) and 0.5 ml protein binding buffer (50 mM NaH2PO4, 300 mM NaCl, 10 mM imidazole, pH = 8.0) at room temperature for 1 hr. After supernatant removal, protein binding buffer with 1% BSA was added, and the mixture was incubated at room temperature for 30 min. After removal of the supernatant, 0.4 ml of interaction buffer (50 mM NaH2PO4, 300 mM NaCl, 10 mM imidazole, and 0.005% Tween, v/v, pH = 8.0) and 0.05 ml [^125I]TAP1 (0.01 MBq) in interaction buffer (5% ethanol, v/v) were added. For measurement of non-specific binding, 0.05 ml of nonradioactive TAP1 in interaction buffer (5% ethanol, v/v, 11.3 µM) was added with the [^125I]TAP1. After incubation at room temperature for 2 hr, the supernatants were removed, and the beads washed with interaction buffer (5% ethanol, v/v). The radioactivity of beads in the tubes was measured with a well-type γ-counter (1480 Wizard3, PerkinElmer Japan Co., Osaka, Japan). Binding ratios were calculated as (radioactivity of beads)/(total applied radioactivity)/(protein abundance on beads)×100 (%Dose/µg protein).

[2] = target: T2, his-tagged FABP4 (Homo sapiens, UniProt P15090); assay: as above
T2 construct: purchased Cayman Chemical Company
T2 sequence (P15090 whole entry): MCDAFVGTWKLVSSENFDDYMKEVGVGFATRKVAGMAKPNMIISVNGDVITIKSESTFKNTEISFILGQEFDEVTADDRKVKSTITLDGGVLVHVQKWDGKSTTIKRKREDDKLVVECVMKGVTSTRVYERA
Procedure: as §1

[3] = target: T3, his-tagged FABP5 (Homo sapiens, UniProt Q01469); assay: as above; settings: immobilized FABP5, 2 hr, room temperature
T3 construct: purchased Cayman Chemical Company
T3 sequence (Q01469 whole entry): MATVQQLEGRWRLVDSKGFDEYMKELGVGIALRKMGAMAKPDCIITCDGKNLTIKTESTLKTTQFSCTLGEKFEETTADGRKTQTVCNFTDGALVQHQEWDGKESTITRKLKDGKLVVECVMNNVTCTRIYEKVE
Procedure: as §1

[4] = target: T4, FABP4 (Homo sapiens, UniProt P15090); assay: Saturation binding assay, Scatchard analysis; settings: immobilized FABP4
T4 construct: purchased Cayman Chemical Company
T4 sequence (P15090 whole entry): as the sequence (P15090 whole entry) above
Procedure: For the saturation assay, a mixture solution of [^125I]TAP1 (0.3–9.5 MBq) was prepared by mixing nonradioactive TAP1 (0.0125–0.4 µM) in interaction buffer (2.5% ethanol and 5% DMSO, v/v). Nonspecific binding was defined in the presence of 0.09 mg/ml [^125I]TAP1 including nonradioactive TAP1. After FABP4 immobilization as described above, 0.4 ml interaction buffer and 0.05 ml mixture solution were added, and the mixture was incubated at room temperature for 2 hr. After incubation, the supernatants were removed and the beads were washed with interaction buffer (5% ethanol, v/v). The radioactivity of beads in the tubes was then measured with a well-type γ-counter. The dissociation constant (K d) of [^125I]TAP1 for FABP4 was determined by Scatchard analysis using GraphPad Prism.

[5] = test system: 3T3-L1 preadipocytes and differentiated adipocytes; assay: Cell uptake study in adipocytes and preadipocytes; format: cell-based, Murine; settings: 37 °C, 1 hr
Procedure: Murine 3T3-L1 preadipocytes were obtained from ATCC and cultured in Dulbecco's Modified Eagle Medium (Nissui Pharmaceutical Co., Ltd.) supplemented with 10% heat-inactivated fetal bovine serum, 50 U/ml penicillin and 50 μg/ml streptomycin at 37 °C in 5% CO2. For cell uptake assay, differentiation of 3T3-L1 cells was performed as described previously. Briefly, two days after confluence, the medium was replaced with DMEM containing 10% FBS and inducers ([…], 10 μg/ml insulin, 0.5 mM 3-isobutyl-1-methylxanthine and 10 μM pioglitazone hydrochloride) for 2 days. The medium was then changed to DMEM supplemented with 10% FBS, 10 μg/ml insulin and 10 μM pioglitazone hydrochloride, and then incubated for 2 days. Then, the medium was changed to DMEM supplemented with 10% FBS and 10 μM pioglitazone hydrochloride every other day. After 8-10 days, the differentiated adipocytes were used for experiments.
For the cell uptake study using adipocytes, the medium of 24-well plate, in which the differentiated adipocytes or undifferentiated 3T3-L1 cells are cultured, was removed. […] Following the measurement of the radioactivity of collected cell lysate with a well-type γ-counter, protein determination was performed. […] Binding ratios were calculated as (radioactivity in collected cells)/(total applied radioactivity)/(protein abundance) x 100 (%Dose/mg protein).

[6] = Partition coefficient, 1-octanol/phosphate buffer pH 7.4; format: physicochemical; settings: 1-octanol/phosphate buffer (PBS(-))
Procedure: Experimental determination of the [^125I]TAP1 partition coefficient was performed with 1-octanol and phosphate buffer at pH 7.4. The two phases were pre-saturated, and a mixture solution of 3.0 ml 1-octanol and 3.0 ml PBS (-) was added to a tube containing 0.02 ml [^125I]TAP1 in PBS (-) (0.024 MBq, 5% ethanol, v/v). The test tube was vortexed and centrifuged (1,000×g, 5 min). Aliquots from the 1-octanol and buffer phases (0.5 ml) were counted with a well-type γ-counter. This procedure was repeated three times. The partition coefficient was calculated from the ratio of radioactivity in the organic and aqueous layers.

[7] = Serum protein binding by rapid equilibrium dialysis; format: in vitro ADME; settings: mouse plasma, 37 °C, 4 hr
Procedure: The serum protein binding ratio of [^125I]TAP1 was measured using rapid equilibrium dialysis (RED) devices (Thermo Fisher Scientific K.K.) following the manufacturer's procedures. Briefly, [^125I]TAP1 (0.02 MBq, 0.02 ml) and mouse plasma (0.3 ml) were mixed and placed to the sample chamber and 0.5 ml PBS (-) was placed in the RED device buffer chamber. After incubation at 37 °C for 4 hr, 0.05 ml of the samples were obtained from each chamber. The binding ratios were calculated as: (sample chamber radioactivity)-(buffer chamber radioactivity)/(sample chamber radioactivity) x 100 (%).

T1 sequence (P05413 whole entry): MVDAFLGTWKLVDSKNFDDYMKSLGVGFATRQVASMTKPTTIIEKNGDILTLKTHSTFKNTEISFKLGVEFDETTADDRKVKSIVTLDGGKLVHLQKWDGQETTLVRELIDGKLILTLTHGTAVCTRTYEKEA

O=c1cc(COc2cccc([125I])c2)[nH]c2nc(-c3ccccc3)nn12 [[^125I]TAP1]
binding to FABP3 [1]: 1.4±0.5 % dose/µg protein | FABP4 binding relative to FABP3 ([2]; FABP4 over FABP3): 11.5 fold | FABP4 binding relative to FABP5 ([2]; FABP4 over FABP5): 33.2 fold | binding to FABP4 ([2]; immobilized FABP4, 2 hr, room temperature): 16.3±3.4 % dose/µg protein | binding to FABP5 [3]: 0.5±0.3 % dose/µg protein | Kd [4]: 69.1 ± 12.3 nM | uptake into adipocytes (FABP4 positive) vs 3T3-L1 preadipocytes (FABP4 negative) [5]: significantly higher | logP [6]: 2.7 ± 0.1 | percentage bound to serum proteins [7]: more than 99%
